Measurements taken from ChEMBL document CHEMBL1201861, “Genomics of Drug Sensitity in Cancer screening data, Wellcome Trust Sanger Institute”.

Legend:
Experiment in all cases: cells
[1] = system: LAN-6; assay type: functional, cell-based, Homo sapiens; conditions: Homo sapiens, LAN-6;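 note: growth inhibition of LAN-6 cells, determined with a cell viability assay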
Description: SANGER: Inhibition of human LAN-6 cell growth in a cell viability assay.

[2] = system: LB831-BLC; assay type: functional, cell-based, Homo sapiens; conditions: Homo sapiens, LB831-BLC;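 note: growth inhibition of LB831-BLC cells, read out with a cell viability assay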
Description: SANGER: Inhibition of human LB831-BLC cell growth in a cell viability assay.

[3] = system: HEL; assay type: functional, cell-based, Homo sapiens; conditions: Homo sapiens, HEL;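 note: growth inhibition of HEL cells, read out with a cell viability assay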
Description: SANGER: Inhibition of human HEL cell growth in a cell viability assay.

[4] = system: DMS-114; assay type: functional, cell-based, Homo sapiens; conditions: Homo sapiens, DMS-114
[5] = system: SK-MEL-2; assay type: functional, cell-based, Homo sapiens; conditions: Homo sapiens, SK-MEL-2;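 note: growth inhibition of human SK-MEL-2 cells measured with a cell viability assay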
Description: SANGER: Inhibition of human SK-MEL-2 cell growth in a cell viability assay.

[6] = system: KE-37; assay type: functional, cell-based, Homo sapiens; conditions: Homo sapiens, KE-37;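 note: growth inhibition of KE-37 cells, read out with a cell viability assay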
Description: SANGER: Inhibition of human KE-37 cell growth in a cell viability assay.

[7] = system: ES4; assay type: functional, cell-based, Homo sapiens; conditions: Homo sapiens, ES4;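 note: growth inhibition of human ES4 cells, read out by a cell viability assay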
Description: SANGER: Inhibition of human ES4 cell growth in a cell viability assay.

[8] = system: TGBC24TKB; assay type: functional, cell-based; conditions: Homo sapiens;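 note: growth inhibition of human TGBC24TKB cells, read out with a cell viability assay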
Description: SANGER: Inhibition of human TGBC24TKB cell growth in a cell viability assay.

[9] = system: Mo; assay type: functional, cell-based, Homo sapiens; conditions: Homo sapiens, Mo
Description: SANGER: Inhibition of human Mo-T cell growth in a cell viability assay.

[10] = system: P30-OHK; assay type: functional, cell-based, Homo sapiens; conditions: Homo sapiens, P30-OHK;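 note: growth inhibition of the P30-OHK cell line, read out with a cell viability assay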
Description: SANGER: Inhibition of human P30-OHK cell growth in a cell viability assay.

[11] = system: LU-139; assay type: functional, cell-based, Homo sapiens; conditions: Homo sapiens, LU-139
Description: SANGER: Inhibition of human LU-139 cell growth in a cell viability assay.

[12] = system: KGN; assay type: functional, cell-based, Homo sapiens; conditions: Homo sapiens, KGN;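 note: growth inhibition of KGN cells, read out with a cell viability assay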
Description: SANGER: Inhibition of human KGN cell growth in a cell viability assay.

[13] = system: ES7; assay type: functional, cell-based, Homo sapiens; conditions: Homo sapiens, ES7;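 note: growth inhibition of cultured human ES7 cells, read out as cell viability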
Description: SANGER: Inhibition of human ES7 cell growth in a cell viability assay.

[14] = system: NOS-1; assay type: functional, cell-based, Homo sapiens; conditions: Homo sapiens, NOS-1;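 note: growth inhibition of the human NOS-1 cell line, read out with a cell viability assay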
Description: SANGER: Inhibition of human NOS-1 cell growth in a cell viability assay.

[15] = system: RS4-11; assay type: functional, cell-based, Homo sapiens; conditions: Homo sapiens, RS4-11;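 note: growth inhibition of RS4-11 cells, read out by a cell viability assay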
Description: SANGER: Inhibition of human RS4-11 cell growth in a cell viability assay.

[16] = system: KM12; assay type: functional, cell-based, Homo sapiens; conditions: Homo sapiens, KM12;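 note: KM12 cell growth inhibition, read out with a cell viability assay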
Description: SANGER: Inhibition of human KM12 cell growth in a cell viability assay.

[17] = system: COLO-829; assay type: functional, cell-based, Homo sapiens; conditions: Homo sapiens, COLO-829
Description: SANGER: Inhibition of human COLO-829 cell growth in a cell viability assay.

[18] = system: MZ2-MEL; assay type: functional, cell-based, Homo sapiens; conditions: Homo sapiens, MZ2-MEL;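 note: growth inhibition of MZ2-MEL cells read out with a cell viability assay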
Description: SANGER: Inhibition of human MZ2-MEL cell growth in a cell viability assay.

[19] = system: KY821; assay type: functional, cell-based, Homo sapiens; conditions: Homo sapiens, KY821;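 note: growth inhibition of human KY821 cells, read out by a cell viability assay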
Description: SANGER: Inhibition of human KY821 cell growth in a cell viability assay.

[20] = system: IST-MES1; assay type: functional, cell-based, Homo sapiens; conditions: Homo sapiens, IST-MES1;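 note: growth inhibition of IST-MES1 cells, measured with a cell viability assay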
Description: SANGER: Inhibition of human IST-MES1 cell growth in a cell viability assay.

[21] = system: DB; assay type: functional, cell-based, Homo sapiens; conditions: Homo sapiens, DB
Description: SANGER: Inhibition of human DB cell growth in a cell viability assay.

[22] = system: BB49-HNC; assay type: functional, cell-based, Homo sapiens; conditions: Homo sapiens, BB49-HNC;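 note: cell viability assay read-out, reported as inhibition of BB49-HNC cell growth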
Description: SANGER: Inhibition of human BB49-HNC cell growth in a cell viability assay.

[23] = system: LOX IMVI; assay type: functional, cell-based, Homo sapiens; conditions: Homo sapiens, LOX IMVI
Description: SANGER: Inhibition of human LOXIMVI cell growth in a cell viability assay.

[24] = system: VA-ES-BJ; assay type: functional, cell-based, Homo sapiens; conditions: Homo sapiens, VA-ES-BJ;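 note: growth inhibition of the VA-ES-BJ cell line, read out by a cell viability assay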
Description: SANGER: Inhibition of human VA-ES-BJ cell growth in a cell viability assay.

[25] = system: HCC2218; assay type: functional, cell-based, Homo sapiens; conditions: Homo sapiens, HCC2218;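 note: cell viability assay read-out, with IC50 given as the concentration that inhibits growth of the cell line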
Description: SANGER: Inhibition of human HCC2218 cell growth in a cell viability assay.

[26] = system: MSTO-211H; assay type: functional, cell-based, Homo sapiens; conditions: Homo sapiens, MSTO-211H
Description: SANGER: Inhibition of human MSTO-211H cell growth in a cell viability assay.

[27] = system: ES3; assay type: functional, cell-based, Homo sapiens; conditions: Homo sapiens, ES3;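 note: growth inhibition of ES3 cells, read out with a cell viability assay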
Description: SANGER: Inhibition of human ES3 cell growth in a cell viability assay.

[28] = system: CGTH-W-1; assay type: functional, cell-based, Homo sapiens; conditions: Homo sapiens, CGTH-W-1;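 note: growth inhibition of human CGTH-W-1 cells measured by cell viability assay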
Description: SANGER: Inhibition of human CGTH-W-1 cell growth in a cell viability assay.

[29] = system: DEL; assay type: functional, cell-based, Homo sapiens; conditions: Homo sapiens, DEL;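 note: growth inhibition of the human DEL cell line, read out with a cell viability assay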
Description: SANGER: Inhibition of human DEL cell growth in a cell viability assay.

[30] = system: TE-10; assay type: functional, cell-based, Homo sapiens; conditions: Homo sapiens, TE-10;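 note: growth inhibition of TE-10 cells, measured by a cell viability assay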
Description: SANGER: Inhibition of human TE-10 cell growth in a cell viability assay.

[31] = system: KG-1; assay type: functional, cell-based, Homo sapiens; conditions: Homo sapiens, KG-1;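 note: growth inhibition of KG-1 cells, read out by a cell viability assay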
Description: SANGER: Inhibition of human KG-1 cell growth in a cell viability assay.

[32] = system: TE-8; assay type: functional, cell-based, Homo sapiens; conditions: Homo sapiens, TE-8;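 note: growth inhibition of TE-8 cells, measured with a cell viability readout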
Description: SANGER: Inhibition of human TE-8 cell growth in a cell viability assay.

[33] = system: LAMA-84; assay type: functional, cell-based, Homo sapiens; conditions: Homo sapiens, LAMA-84;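 note: growth inhibition of LAMA-84 cells, read out with a cell viability assay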
Description: SANGER: Inhibition of human LAMA-84 cell growth in a cell viability assay.

[34] = system: JAR; assay type: functional, cell-based, Homo sapiens; conditions: Homo sapiens, JAR;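 note: growth inhibition of human JAR cells determined with a cell viability assay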
Description: SANGER: Inhibition of human JAR cell growth in a cell viability assay.

[35] = system: NB69; assay type: functional, cell-based, Homo sapiens; conditions: Homo sapiens, NB69;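 note: growth inhibition of NB69 cells, determined by a cell viability assay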
Description: SANGER: Inhibition of human NB69 cell growth in a cell viability assay.

[36] = system: K562; assay type: functional, cell-based, Homo sapiens; conditions: Homo sapiens, K562
Description: SANGER: Inhibition of human K-562 cell growth in a cell viability assay.

[37] = system: KYSE-270; assay type: functional, cell-based; conditions: Homo sapiens;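 note: cell growth inhibition measured with a viability assay in the human KYSE-270 line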
Description: SANGER: Inhibition of human KYSE-270 cell growth in a cell viability assay.

[38] = system: RCC10RGB; assay type: functional, cell-based, Homo sapiens; conditions: Homo sapiens, RCC10RGB;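 note: growth inhibition of human RCC10RGB cells, read out by a cell viability assay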
Description: SANGER: Inhibition of human RCC10RGB cell growth in a cell viability assay.

[39] = system: SHP77; assay type: functional, cell-based, Homo sapiens, SHP-77; conditions: Homo sapiens, SHP77;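 note: growth inhibition of human SHP-77 cells measured by a cell viability assay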
Description: SANGER: Inhibition of human SHP-77 cell growth in a cell viability assay.

[40] = system: HH; assay type: functional, cell-based, Homo sapiens; conditions: Homo sapiens, HH
Description: SANGER: Inhibition of human HH cell growth in a cell viability assay.

[41] = system: LU-134-A; assay type: functional, cell-based, Homo sapiens; conditions: Homo sapiens, LU-134-A
Description: SANGER: Inhibition of human LU-134-A cell growth in a cell viability assay.

[42] = system: LC-2-ad; assay type: functional, cell-based, Homo sapiens; conditions: Homo sapiens, LC-2-ad;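 note: growth inhibition of human LC-2-ad cells, read out with a cell viability assay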
Description: SANGER: Inhibition of human LC-2-ad cell growth in a cell viability assay.

[43] = system: DOHH-2; assay type: functional, cell-based, Homo sapiens; conditions: Homo sapiens, DOHH-2;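 note: growth inhibition of human DOHH-2 cells, read out with a cell viability assay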
Description: SANGER: Inhibition of human DOHH-2 cell growth in a cell viability assay.

[44] = system: NTERA-2-cl-D1; assay type: functional, cell-based, Homo sapiens; conditions: Homo sapiens, NTERA-2-cl-D1;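 note: inhibition of cell growth, measured with a cell viability assay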
Description: SANGER: Inhibition of human NTERA-S-cl-D1 cell growth in a cell viability assay.

[45] = system: EW-16; assay type: functional, cell-based, Homo sapiens; conditions: Homo sapiens, EW-16;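 note: growth inhibition of human EW-16 cells, read out as cell viability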
Description: SANGER: Inhibition of human EW-16 cell growth in a cell viability assay.

[46] = system: C8166; assay type: functional, cell-based, Homo sapiens; conditions: Homo sapiens, C8166;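 note: growth inhibition of human C8166 cells measured by a cell viability assay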
Description: SANGER: Inhibition of human C8166 cell growth in a cell viability assay.

[47] = system: BB65-RCC; assay type: functional, cell-based, Homo sapiens; conditions: Homo sapiens, BB65-RCC;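 note: growth inhibition of the cell line, measured with a cell viability assay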
Description: SANGER: Inhibition of human BB65-RCC cell growth in a cell viability assay.

[48] = system: MEG-01; assay type: functional, cell-based, Homo sapiens; conditions: Homo sapiens, MEG-01;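 note: growth inhibition of MEG-01 cells, read out by a cell viability assay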
Description: SANGER: Inhibition of human MEG-01 cell growth in a cell viability assay.

## CN(C)CCOc1ccc(-c2nc(-c3ccncc3)c(-c3ccc4c(c3)CC/C4=N\O)[nH]2)cc1 [SB590885]
[1]
  IC50: > 5 µM
[2]
  IC50: > 5 µM
[3]
  IC50: > 5 µM
[4]
  IC50: > 5 µM
[5]
  IC50: 738 nM
[6]
  IC50: > 5000 nM
[7]
  IC50: > 5000 nM
[8]
  IC50: > 5000 nM
[9]
  IC50: > 5 µM
[10]
  IC50: > 5 µM
[11]
  IC50: > 5 µM
[12]
  IC50: > 5 µM
[13]
  IC50: > 5000 nM
[14]
  IC50: > 5000 nM
[15]
  IC50: > 5000 nM
[16]
  IC50: > 5 µM
[17]
  IC50: 967 nM
[18]
  IC50: > 5 µM
[19]
  IC50: > 5 µM
[20]
  IC50: > 5 µM
[21]
  IC50: > 5 µM
[22]
  IC50: > 5000 nM
[23]
  IC50: 3.19 µM
[24]
  IC50: > 5000 nM
[25]
  IC50: 1060 nM
[26]
  IC50: > 5 µM
[27]
  IC50: > 5 µM
[28]
  IC50: > 5 µM
[29]
  IC50: > 5 µM
[30]
  IC50: > 5 µM
[31]
  IC50: > 5 µM
[32]
  IC50: > 5 µM
[33]
  IC50: > 5 µM
[34]
  IC50: > 5 µM
[35]
  IC50: > 5000 nM
[36]
  IC50: > 5 µM
[37]
  IC50: > 5000 nM
[38]
  IC50: > 5 µM
[39]
  IC50: > 5 µM
[40]
  IC50: > 5000 nM
[41]
  IC50: > 5 µM
[42]
  IC50: > 5 µM
[43]
  IC50: > 5000 nM
[44]
  IC50: > 5 µM
[45]
  IC50: > 5 µM
[46]
  IC50: > 5 µM
[47]
  IC50: > 5 µM
[48]
  IC50: > 5 µM

## CS(=O)(=O)N1CCN(Cc2cc3nc(-c4cccc5[nH]ncc45)nc(N4CCOCC4)c3s2)CC1 [PICTILISIB]
[1]
  IC50: > 4 µM
[2]
  IC50: > 4 µM
[3]
  IC50: > 4 µM
[4]
  IC50: > 4 µM
[5]
  IC50: > 4000 nM
[6]
  IC50: > 4000 nM
[7]
  IC50: 640 nM
[8]
  IC50: 1080 nM
[9]
  IC50: > 4 µM
[10]
  IC50: 0.731 µM
[12]
  IC50: > 4 µM
[13]
  IC50: 342 nM
[14]
  IC50: 212 nM
[15]
  IC50: 262 nM
[16]
  IC50: > 4 µM
[17]
  IC50: > 4000 nM
[18]
  IC50: 3.66 µM
[20]
  IC50: > 4 µM
[21]
  IC50: > 4 µM
[22]
  IC50: 1890 nM
[23]
  IC50: 2.04 µM
[24]
  IC50: 1610 nM
[26]
  IC50: > 4 µM
[27]
  IC50: > 4 µM
[28]
  IC50: > 4 µM
[29]
  IC50: > 4 µM
[30]
  IC50: > 4 µM
[31]
  IC50: > 4 µM
[32]
  IC50: 3.48 µM
[33]
  IC50: 2.03 µM
[34]
  IC50: > 4 µM
[35]
  IC50: 245 nM
[36]
  IC50: > 4 µM
[37]
  IC50: 1300 nM
[38]
  IC50: > 4 µM
[39]
  IC50: > 4 µM
[40]
  IC50: 111 nM
[41]
  IC50: > 4 µM
[42]
  IC50: > 4 µM
[43]
  IC50: > 4000 nM
[45]
  IC50: 1.85 µM
[46]
  IC50: > 4 µM
[47]
  IC50: > 4 µM
[48]
  IC50: > 4 µM

## NC1(c2ccc(-c3nc4ccn5c(=O)[nH]nc5c4cc3-c3ccccc3)cc2)CCC1 [MK-2206]
[1]
  IC50: > 4 µM
[2]
  IC50: > 4 µM
[3]
  IC50: > 4 µM
[4]
  IC50: 3.62 µM
[5]
  IC50: > 4000 nM
[6]
  IC50: 583 nM
[7]
  IC50: > 4000 nM
[8]
  IC50: > 4000 nM
[9]
  IC50: > 4 µM
[10]
  IC50: 3.81 µM
[11]
  IC50: > 4 µM
[12]
  IC50: > 4 µM
[13]
  IC50: > 4000 nM
[14]
  IC50: 637 nM
[15]
  IC50: 346 nM
[16]
  IC50: > 4 µM
[18]
  IC50: > 4 µM
[19]
  IC50: > 4 µM
[20]
  IC50: > 4 µM
[21]
  IC50: > 4 µM
[22]
  IC50: > 4000 nM
[23]
  IC50: > 4 µM
[24]
  IC50: 730 nM
[25]
  IC50: 1680 nM
[26]
  IC50: > 4 µM
[27]
  IC50: 2.5 µM
[28]
  IC50: > 4 µM
[29]
  IC50: > 4 µM
[30]
  IC50: > 4 µM
[31]
  IC50: > 4 µM
[32]
  IC50: > 4 µM
[33]
  IC50: > 4 µM
[34]
  IC50: > 4 µM
[35]
  IC50: 2390 nM
[36]
  IC50: > 4 µM
[37]
  IC50: > 4000 nM
[38]
  IC50: > 4 µM
[39]
  IC50: > 4 µM
[40]
  IC50: 303 nM
[41]
  IC50: 3.88 µM
[42]
  IC50: > 4 µM
[43]
  IC50: 1280 nM
[44]
  IC50: > 4 µM
[45]
  IC50: 3.22 µM
[46]
  IC50: > 4 µM
[47]
  IC50: > 4 µM
[48]
  IC50: > 4 µM
